The nature of data set [1]: Solubility of ruxolitinib free base or 1:1 phosphate salt in potential solvents (HPLC). It is filed as physicochemical. The following applies: for solubility at 24 h: thermodynamic from solid; for Solubility: listed as Free Base. As to the method: First, in order to determine the solubility of ruxolitinib (free base) or its 1:1 phosphate salt, approximately 5 mL of a potential solvent was added to approximately 50 mg of the API or its salt at room temperature. The mixtures were suspended and rotated on a wheel. If the mixtures became clear solutions, more solid material was added. The suspensions were then suspended over 24 hours. The samples were filtered through 0.2 micron filters. The liquid portions were collected and diluted with 50/50 water methanol/water. The concentrations of the diluted samples were analyzed by HPLC. When the free base or salt was fairly insoluble, the results are approximate only.

For data set [2], the system named is patients with moderate-to-severe AD. The following applies: subcutaneous, At Week 16, Solo1 and Solo2 trials, cited from earlier work; for Proportion of patient achieving a 4-point improvement in itch NRS score: itch NRS score of ≥4 at baseline.
Where [3] appears, read: 300 mg every other week, first printed value.
Where [4] appears, read: 300 mg every other week, second printed value.
Setting [5] is: 300 mg every week, first printed value.
Where [6] appears, read: 300 mg every week, second printed value.

The values that follow come from patent US11590137B2, “Ruxolitinib formulation for reduction of itch in atopic dermatitis” (Incyte Corporation, priority 2019, dated 2023).

Where two headings read alike, the source gives them in different places.

Usually solubility stands for how much of the substance goes into solution per volume. The term Solubility denotes the concentration that dissolves in the medium under given conditions.

As to `N#CC[C@H](C1CCCC1)n1cc(-c2ncnc3[nH]ccc23)cn1` [ruxolitinib phosphate], the solubility at 24 h was under 200 µg/mL in data set [1] (C12-15 alcohol benzoate, oil or lipid); under 200 µg/mL in data set [1] (caprylic triglyceride, oil or lipid); under 200 µg/mL in data set [1] (dimethicone, oil or lipid); under 100 µg/mL in data set [1] (isopropyl myristate, oil or lipid); under 100 µg/mL in data set [1] (mineral oil, oil or lipid); 100 µg/mL in data set [1] (oleyl alcohol, oil or lipid, Olelyl alcohol). Besides, the solubility at 24 h came out at 24000 µg/mL in data set [1] (propylene glycol, organic solvent or mixture); 23000 µg/mL in data set [1] (water/PEG 200 (50/50), aqueous with cosolvent or surfactant or cyclodextrin); 18000 µg/mL in data set [1] (water/glycerin/trolamine (40/40/20), aqueous with cosolvent or surfactant or cyclodextrin).

Regarding “dupilumab: a systemic biologic agent; phase 3 trials in moderate-to-severe AD cited for comparison”, the “Proportion of patients achieving EASI-75” value in data set [2] (setting [3]) was 44%; in data set [2] (setting [4]) it was 51%; in data set [2] (setting [5]), 48%; in data set [2] (setting [6]) it was 52%. The “Proportion of patients achieving IGA-TS” value in data set [2] (setting [3]) is 36%; in data set [2] (setting [4]), 38%; in data set [2] (setting [5]), 36%; in data set [2] (setting [6]), 37%. Also, the “Proportion of patient achieving a 4-point improvement in itch NRS score” value is listed as 36% in data set [2] (setting [3]), 41% in data set [2] (setting [4]), 39% in data set [2] (setting [5]) and 40% in data set [2] (setting [6]).

For `N#CC[C@H](C1CCCC1)n1cc(-c2ncnc3[nH]ccc23)cn1` [ruxolitinib, (R)-3-(4-(7H-pyrrolo[2,3-d]pyrimidin-4-yl)-1H-pyrazol-1-yl)-3-cyclopentylpropanenitrile], the solubility at 24 h in data set [1] (0.1 M citric buffer, pH 4, aqueous buffer, pH 4, citric buffer, 0.1M) was 1100 µg/mL; in data set [1] (0.1 M citric buffer, pH 6, aqueous buffer, pH 6, citric buffer, 0.1M) it was 150 µg/mL; in data set [1] (PEG 200, organic solvent or mixture, PEG 200) it was 17400 µg/mL; in data set [1] (PEG 300, organic solvent or mixture, PEG 300), 10600 µg/mL; in data set [1] (Transcutol, organic solvent or mixture), 7600 µg/mL; in data set [1] (benzyl alcohol, organic solvent or mixture), 2300 µg/mL. Also, the solubility at 24 h in data set [1] (ethanol, organic solvent or mixture) turned out to be 5500 µg/mL; in data set [1] (glycerin, organic solvent or mixture) it was 8300 µg/mL; in data set [1] (isopropanol, organic solvent or mixture), 450 µg/mL; in data set [1] (isosorbide dimethyl ether, organic solvent or mixture), 300 µg/mL; in data set [1] (trolamine, organic solvent or mixture), 38600 µg/mL; in data set [1] (water, room temperature), 2000 µg/mL. Also, the solubility at 24 h in data set [1] (water/glycerin (50/50), aqueous with cosolvent or surfactant or cyclodextrin, Water/glyercin (50/50)) is 15900 µg/mL. Moreover, the Solubility in data set [1] (C12-15 alcohol benzoate) is 150 µg/mL; in data set [1] (Caprylic triglyceride), 150 µg/mL; in data set [1] (Mineral oil) it was 80 µg/mL; in data set [1] (Olelyl alcohol) it was 80 µg/mL; in data set [1] (Water/PEG 200 (50/50)), 17400 µg/mL.
